{
  "source": "patent US11191811B2",
  "about": "“Osteocalcin as a treatment for frailty associated with aging” (THE TRUSTEES OF COLUMBIA UNIVERSITY IN THE CITY OF NEW YORK, priority 2014, dated 2021)",
  "key": {"Gprc6aMck−/− mice": {"tested_on": "Gprc6aMck−/− mice", "assay": "Endurance exercise on treadmill until exhaustion", "assay_type": "in vivo, mouse", "settings": "Gprc6aMck−/− mice treated with Ocn", "protocol": "First, whether a single intraperitoneal injection of uncarboxylated mouse osteocalcin (osteocalcin) (100 ng/g of body weight) immediately before exercise would improve the exercise capacity of 3 month-old WT mice was tested.\nFor exercise studies, all mice were trained before the tests to run on a treadmill (Harvard apparatus) for three days (10 minutes/day). The day of the test, mice were acclimated to the treadmill for 5 minutes followed by 10 minutes running at a constant speed of 17 cm/s, then a gradual increase in the speed up to 30 cm/s. Next, mice were run until exhaustion as defined by the number of times a mouse fell off to the electric grid during one minute (>15). Measurements of muscle strength were carried out using a grip strength meter (Columbus instruments). Values are expressed as the average of five single measurements, taken one minute apart from each other. For all biochemical and metabolic analyses performed, blood/tissues were collected and processed either at rest or at the end of a 40 min run (30 cm/s)."}, "muscles of WT mice": {"tested_on": "muscles of WT mice", "assay": "Western blot of Akt, AMPK and HSL phosphorylation in muscles of WT mice given Ocn", "assay_type": "in vivo, mouse", "protocol": "FIG. 31. Osteocalcin treatment increases muscle function in young and old WT mice. (A-B) Performance during endurance exercise of 3 month-old WT, Gprc6af/f and Gprc6aMck−/− female mice treated with Ocn (n=6-10 per group). (C) Performance during endurance exercise of 12 and 15 month-old WT female mice treated with Ocn (n=6-10 per group). (D) Western blot analysis of Akt phosphorylation (Ser473) in muscles of WT mice injected with Ocn (500 ng/g) after a single bout of exercise. (E) Western blot analysis of AMPK phosphorylation ([…]) in muscles of WT mice injected with Ocn (500 ng/g) after a single bout of exercise. (F) Western blot analysis of HSL phosphorylation (Ser563) in muscles of WT mice injected with Ocn (500 ng/g) after a single bout of exercise. (G) Uptake of ^3H-2-DG in glycolytic (Gly—white quadriceps) and oxidative (Ox—red quadriceps) muscles after a single bout of exercise in 15 month-old WT mice receiving Ocn before running (n=5 per group). (H) Performance during endurance exercise of 10 month-old WT mice receiving Ocn for 28 days (n=7 per group). (I) Expression of Cd36, Fatp1 and Cpt1b in gastrocnemius of 10 month-old WT mice receiving Ocn for 28 days (n=7 per group). (J) Western blot analysis of Akt phosphorylation (Ser473) in muscles of WT mice receiving Ocn for 28 days (n=7 per group). (K) Schematic representation of how osteocalcin signaling in myofibers and IL-6 cooperate to increase exercise capacity.\nTo determine if osteocalcin has the same ability in older mice, 12 and 15 month-old mice that have low circulating osteocalcin levels were injected prior to running with 500 ng/g of body weight of osteocalcin in order to raise their circulating levels substantially. […] This was due to an increase in the phosphorylation of Akt, AMPK and HSL, as well as in glucose uptake, that occurred to a greater extent in oxidative muscles that express Gprc6a at the highest level, than in glycolytic muscles (FIG. 31C-F). Whether chronic delivery of osteocalcin through mini-pumps (90 ng/hour) for 28 days would increase muscle function in 9 month old mice that have the lowest circulating osteocalcin levels was also tested. […] This improved ability to perform exercise was caused in part by an increase in the expression in muscle of the fatty acid transporter Fatp1 and an activation of the Akt pathway (FIG. 31H-)."}, "[1]": {"settings": "WT mice injected with Ocn (500 ng/g), after a single bout of exercise, listed as osteocalcin"}},
  "note": "Entries after “also recorded” stand apart in the source; their conditions may differ.",
  "data": [
    {"substance": "uncarboxylated osteocalcin: Recombinant uncarboxylated mouse osteocalcin, bacterially produced, purified on glutathione beads and cleaved from the GST subunit by thrombin (YLGASVPSPDPLEPTREQCELNPACDELSDQYGLKTAYKRIYGITI)", "values": [
      {"measurement": "muscle function", "setting": "Gprc6aMck−/− mice", "result": "did not improve"},
      {"measurement": "phosphorylation of AMPK in muscle", "setting": "muscles of WT mice; WT mice injected with Ocn (500 ng/g), after a single bout of exercise", "result": "increase"},
      {"measurement": "phosphorylation of Akt in muscle", "setting": "muscles of WT mice; WT mice injected with Ocn (500 ng/g), after a single bout of exercise, listed as Osteocalcin", "result": "induced"},
      {"measurement": "phosphorylation of Akt in muscle", "setting": "muscles of WT mice; [1]", "result": "increase"},
      {"measurement": "phosphorylation of HSL (Ser563) in muscle", "setting": "muscles of WT mice; [1]", "result": "enhanced; also recorded: increase"},
      {"measurement": "Akt pathway in muscle", "setting": "muscles of WT mice; mini-pumps 90 ng/hour for 28 days", "result": "activation"}
    ]}
  ]
}
